Numbering of substitutions follows the chain as printed. One block for each compound: values may come before it.
What was measured:
[1] = target: T1, mtAT2R (Rattus norvegicus, UniProt P35351); assay: Mitochondrial respiration, isolated rat heart mitochondria (Seahorse XF96); assay type: biochemical
T1 construct: we examined effects on respiration in rat heart mitochondria; from tissue; host or cells: isolated rat heart or liver mitochondria
T1 sequence (P35351 1-363): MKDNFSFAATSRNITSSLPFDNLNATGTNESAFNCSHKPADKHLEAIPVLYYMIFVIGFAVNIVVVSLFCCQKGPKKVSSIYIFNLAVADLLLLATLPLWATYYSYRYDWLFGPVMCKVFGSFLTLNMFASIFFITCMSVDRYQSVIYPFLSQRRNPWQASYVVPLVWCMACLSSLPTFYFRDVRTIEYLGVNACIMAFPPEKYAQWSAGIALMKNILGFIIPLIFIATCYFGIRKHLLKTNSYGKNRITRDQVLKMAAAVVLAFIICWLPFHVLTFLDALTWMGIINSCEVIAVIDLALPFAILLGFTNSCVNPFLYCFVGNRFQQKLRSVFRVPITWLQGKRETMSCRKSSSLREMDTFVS
Protocol: Mitochondrial Respiration. For monitoring respiration, isolated mitochondria from rat heart or liver (10 μg of protein per well) were aliquoted into 96 wells of a polyethyleneimine-coated XF96 cell culture microplate (Seahorse Bioscience). The plate was centrifuged at 3,000×g for 10 minutes at 4° C. in an A-4-62 rotor, which control experiments determined caused an attachment of isolated mitochondria that was sufficiently robust to withstand the mixing protocols of the machine. Mitochondria were placed in 300 μL per well of mitochondrial buffer [20 mM Hepes, 137 mM KCl, 2.5 mM MgCl2, 2 mM K2HPO4, 0.5 mM EGTA, and 0.2% (wt/vol) BSA (pH 7.3) at 37° C.]J. Plates were used immediately. The cell culture microplate was incubated and loaded into the Seahorse XF96 extracellular flux analyzer following the manufacturer's instructions. All experiments were performed at 37° C.
Oxygen consumption rate data points refer to the mean rates during the measurement cycles, which consisted of a mixing time of 30 s and a wait time of 2 minutes followed by a data acquisition period of 10 minutes (50 data points). […] The oxygen consumption rates were determined by using a compartment model-based deconvolution algorithm, which compensated for oxygen diffusion phenomena occurring around the entrapped volume and for the response time of the probe. […]

[2] = target: T2, mtAT2R (Mus musculus, UniProt P35374); assay: NO production in isolated kidney mitochondria (NO fluorescent probe); assay type: biochemical; details: PD-123319 1 μM; P<0.01
T2 construct: from tissue; host or cells: isolated kidney mitochondria
T2 sequence (P35374 1-363): T1 sequence (P35351 1-363) with L18R, A40S, V88L, S352G
Protocol: Measurement of Nitric Oxide (NO) Production in Isolated Mitochondria. Kidney mitochondria were isolated by homogenization and differential centrifugation in a medium containing […] of 1 M sucrose, 12 mL of 1 M mannitol, 2.5 mL of 1 M KCL, 1 M Tris-HCL, 0.5 mL of 1 M EDTA, 1.5 mL of 0.1 M EGTA, and 0.1% BSA (pH 7.4). Mitochondria were suspended in incubation solution. Total mitochondrial protein was determined by a Lowry Protein Assay Kit (Sigma-Aldrich). […] The fluorescent products were measured by using a reader equipped with Cyanine 5 (650/670 nm).
AT2Rs Modulate Mitochondrial NO Production. To determine whether mtAT2R activation might modulate mitochondrial NO production in a manner analogous to the actions of non-mtAT2Rs on other NO isoforms, the direct effects of AT2R agonists and antagonists were determined on isolated kidney mitochondria. […] Fluorescence signal was measured by using a multimode microplate reader equipped with Cyanine 5 (650/670 nm). Treatment of mitochondria with CGP421140 caused a concentration-dependent increase in mitochondrial NO production (FIG. 6A); specifically, 10 nM was sufficient to stimulate NO production [from 0.52±0.0009 fluorescence arbitrary units (AU) at baseline control to 0.6+0.01 AU, P<0.001]. […]

[3] = test system: wounds; assay: Wound healing in db/db mice, losartan started at different phases; assay type: in vivo, BKS.Cg-m+/+Lepr^db/J(db/db) mice; details: 8 week old db/db mice; preliminary data
Text: In order to provide additional rationale for using losartan ointment at day 7 of wound treatment, preliminary data was developed on the effects of losartan on all phases of wound healing in 8 week old BKS.Cg-m+/+Lepr^db/J(db/db) mice (FIGS. 11, 12).

[4] = test system: mtAT2R; assay: Immunoelectron microscopy of mtAT2R in kidney tubular cells of aged mice on chronic losartan; assay type: in vivo, C57BL/6 mice; details: 70-wk-old mice, losartan 40-60 mg/kg per day for 20 wk; aged untreated 10.2+2.2, young 25.5+6.2
Protocol: (§1) Immunolocalization of AT1R, AT2R, and Ang. Immunogold electron microscopy was performed as described (Am. J. Physiol. Endocrinot. Metab., 286:E1011-E1022 (2004)). In brief, mouse tissues were fixed in 4% formaldehyde in 0.1 M sodium cacodylate supplemented with 3% sucrose (wt/vol) and 3 mM CaCl2 and cryoprotected in 2.3 M sucrose overnight in polyvinylpyrrolidone (Sigma). Ultrathin sections were cut on a Leica Ultracut UCT microtome, and sections were placed on Formvar-coated nickel 200-mesh hexagonal grids. The sections were incubated in primary antibody against rabbit anti-AT2R, goat anti-Ang, or goat anti-AT1R antibody overnight at 4° C. at a concentration of 10 μg/mL. […] Primary antibodies were detected with either 6-nm colloidal gold donkey anti-goat or 12-nm colloidal goat anti-rabbit (Jackson ImmunoResearch) diluted 1:20 in PBS for 1 hour. Final contrasting of the sections was done by incubating them in 2% methyl cellulose (Sigma) and 0.3% uranyl acetate (Ted Pella) for 10 min at 4° C. All sections were viewed with a Philips CM 120 TEM transmission electron microscope at an accelerating voltage of 80 kV. Images were taken with a Gatan Orius SC 1000 digital camera. Photographs for representative sections were taken.

[5] = test system: mtAT1R; assay: Immunoelectron microscopy of mtAT1R in kidney tubular cells of aged mice on chronic losartan; assay type: in vivo, C57BL/6 mice; details: 70-wk-old mice, losartan 40-60 mg/kg per day for 20 wk; aged untreated 12.7+5.8, young 2.0+2.2
Protocol: as §1

[6] = Blood pressure and general health of mice on chronic losartan
Protocol: Human and Animal Groups. Mitochondria were studied in adult human monocytes (20-30 y old), adult human skeletal muscle tissue, adult rats (24 wk old), adult (20 wk old) and aged (70 wk old) mice, and a human cell line. Adult mice at 50 wk of age were treated with the AT1R blocker losartan at doses of 40-60 mg/kg per day for 20 wk. All experiments were approved by the Johns Hopkins Animal Care and use Committee and the Johns Hopkins Institutional Review Board. Weight, blood urea nitrogen, creatinine, and albumin were measured in adult (20 wk) and aged (70 wk) mice and in aged mice on losartan treatment. […] We visually inspected each animal carcass after the dissection for any abnormalities.

[7] = test system: 8-mm excisional wounds; assay: Full thickness excisional wound healing, daily topical cream; assay type: in vivo, mice; details: after three days of treatment, FIG. 8
Protocol: For wound-healing experiments, animal procedures were approved by the Johns Hopkins University Animal Care and Use Committee. During the experiments the animals were-housed one per cage, maintained under controlled environmental conditions (12 hours light to dark cycle, temperature approximately 23° C.), and provided with standard laboratory food and water ad libitum. 16 male mice with average weight of 30 g were divided into two groups. Mice were anesthetized with ketamine hydrochloride (100 mg/kg) and xylazine (10 mg/kg), and the dorsum was shaved and then treated with a depilatory (Nair cream, Church & Dwight Co., Princeton, N.J.). Two symmetrical full thickness excisional wounds created on their back using an 8-mm punch biopsy instrument. No dressing was used after burn. The animals were resuscitated according to the Parkland formula (4 mL/kg/percent body area) by intraperitoneal injection of saline within 1 hour after wound. Animals were divided into two groups; A and B. One group received daily application of an angiotensin receptor blocker cream to both wounds per animal and the other received vehicle. Researchers were blinded to the identity of the cream applied. We used digital photography and computerized planimetry to assess the rate of wound healing in either group.

SMILES: COC(=O)[C@@H](N)CCCNC(=N)N[N+](=O)[O-] [L-NAME, L-N^G-nitroarginine methyl ester]
CGP421140-inhibited state 3 respiration reversed by L-NAME ([1]; 100 nM CGP421140 + L-NAME 1 μM, P<0.05): 67.4±4.3 pmol/min per μg

CGP421140-inhibited state 3 respiration restored by PD-123319 ([1]; 100 nM CGP421140 + PD-123319 1 μM, P<0.01): 66.83±2.1 pmol/min per μg | CGP421140-stimulated NO production after pretreatment with PD-123319 [2]: 0.55±0.006 AU
SMILES: Cc1cc(Cn2cnc3c2C[C@@H](C(=O)O)N(C(=O)C(c2ccccc2)c2ccccc2)C3)ccc1N(C)C [PD-123319]

SMILES: CCCCc1nc(Cl)c(CO)n1Cc1ccc(-c2ccccc2-c2nn[nH]n2)cc1 [losartan]
healing and elasticity, treatment starting at day 7 compared to day 1 [3]: accelerated healing and improved elasticity | mtAT2R expression [4]: 39.0+2.6 gold-labeled AT2R per mitochondrion | mtAT1R expression [5]: 11.0+2.1 gold-labeled AT1R per mitochondrion | evidence of malignancy on carcass inspection ([6]; 10 animals per group): did not observe any evidence of malignancy | weight, blood urea nitrogen, creatinine, and albumin ([6]; adult, aged and aged mice on losartan, data not shown): no significant difference | decrease in blood pressure ([6]; losartan 40-60 mg/kg per day for 20 wk): 10-15% | wound granulation versus vehicle [7]: more granulation
